Test results from patent publication US8349791B2, “Polypeptides that bind membrane proteins” (The Trustees of the University of Pennsylvania, priority 2006, dated 2013).
Peptide text beside a SMILES is read from it.

Columns and labels:
[1] = biological target: T1, FITC-αIIb-TM (Homo sapiens, UniProt P08514); experiment: FRET heterodimeric association in micelles; format: binding; conditions: pH 7.5
T1 construct: designated αIIb-TM, spanning residues Trp968 to Lys989 of αIIb was synthesized; made in house; host or cells: chemical peptide synthesis (no expression host)
Protocol: FRET provided a more direct measure of the αIIb-TM/anti-αIIb heterodimeric association. […] Because the appropriate parameter for the association of polypeptides in micelles is generally the polypeptide concentration in the detergent micellar phase rather than the bulk polypeptide concentration, dissociation constants are often given in mole fraction units (polypeptide/detergent ratios).
Fluorescence resonance energy transfer (FRET) experiments were conducted on an ATF 105 spectrofluorometer (Aviv Biomedical, Inc., Lakewood, N.J.) using 0.3 cm path length cuvettes. […] Reference samples contain the same amount of FITC-αIIb-TM and non-labeled anti-αIIb to their corresponding FRET samples. Emission and excitation scans of the 1:1 mixture of FITC-αIIb-TM/coum-anti-αIIb were carried out to determine the optimal excitation and emission wavelengths. Excitation at 415 nm was selected. For the titration experiments in FIG. 2b, the emission at 500 nm was monitored. A slit width of 1.5 nm was used for both the excitation and emission. The signal and QC PMT high voltages were set at 737.3 V and 75.0 V, respectively. For the time-domain experiments, an experiment time of 600 seconds with 10 seconds of interval time and 10 seconds of average time was used. […] The fluorescence intensity values were used after correction of the inner filter effects using the standard method. […]

[2] = TOXCAT homodimerization in bacterial membranes; format: cell-based, Escherichia coli; conditions: ToxR fusion in E. coli
Protocol: Both the affinity and specificity of the membrane protein-binding peptides for their targets when coexpressed in bacterial membranes were assessed with a DN-“TOXCAT” assay (FIGS. 3a-3c). In TOXCAT, a TM sequence of interest is fused to a ToxR protein (TM-ToxR) that binds to the ctx promoter as a dimer, which induces expression of chloramphenicol acetyltransferase (CAT) (W. P. Russ, D. M. Engelman, Proc. Natl. Acad. Sci. U.S.A. 96, 863 (1999); D. Langosch, B. Brosig, H. Kolmar, H. J. Fritz, J. Mol. Biol. 263, 525 (1996)). In the DN assay, the TM1-ToxR fusion protein is coexpressed with a second fusion protein (TM2-ToxR*) containing a nonfunctional mutant of the ToxR domain. TM-driven dimerization leads to a ToxR-ToxR* dimer that is unable to bind the ctx promoter or to induce CAT synthesis (FIG. 3a). The resulting decrease in CAT activity can be used to monitor the formation of a heterodimeric TM complex. In principle, this assay could be accomplished by adding an exogenous synthetic peptide (D. Gerber, N. Sal-Man, Y. Shai, J. Mol. Biol. 339, 243 (2004)); however, it is difficult to assure that different peptides will be similarly inserted into the Escherichia coli inner membrane. […]

[3] = biological target: T2, αv TM domain (Homo sapiens, UniProt P06756); experiment: DN-TOXCAT heterodimerization; format: cell-based; conditions: coexpressed in bacterial membranes
T2 construct: expressed in transfected cells; host or cells: E. coli MM39, pDNToxR-Duet
Protocol: Both the affinity and specificity of the membrane protein-binding peptides for their targets when coexpressed in bacterial membranes were assessed with a DN-“TOXCAT” assay (FIGS. 3a-3c). In TOXCAT, a TM sequence of interest is fused to a ToxR protein (TM-ToxR) that binds to the ctx promoter as a dimer, which induces expression of chloramphenicol acetyltransferase (CAT) (W. P. Russ, D. M. Engelman, Proc. Natl. Acad. Sci. U.S.A. 96, 863 (1999); D. Langosch, B. Brosig, H. Kolmar, H. J. Fritz, J. Mol. Biol. 263, 525 (1996)). In the DN assay, the TM1-ToxR fusion protein is coexpressed with a second fusion protein (TM2-ToxR*) containing a nonfunctional mutant of the ToxR domain. TM-driven dimerization leads to a ToxR-ToxR* dimer that is unable to bind the ctx promoter or to induce CAT synthesis (FIG. 3a). The resulting decrease in CAT activity can be used to monitor the formation of a heterodimeric TM complex. In principle, this assay could be accomplished by adding an exogenous synthetic peptide (D. Gerber, N. Sal-Man, Y. Shai, J. Mol. Biol. 339, 243 (2004)); however, it is difficult to assure that different peptides will be similarly inserted into the Escherichia coli inner membrane.
For testing the specificity of the designed membrane protein-binding polypeptide sequences against the integrin TM domains, the designed sequences (anti-αIIb and anti-αV) were cloned into MCS1 of the Duet vector and the integrin TM domains into MCS2 of the Duet vector. In this configuration, the integrin TMs compete for the homodimers formed by the polypeptide sequences, with the decrease in CAT signal proportional to the extent of heterodimerization between a given integrin TM and polypeptide sequence relative to the homodimerization of the polypeptide sequence.
Single MM39 colonies containing pDNToxR-Duet constructs from selective plates were chosen, inoculated in 5 mL of LB medium containing 100 μg/mL ampicillin and grown to an OD600 of 0.2 at 37° C. with vigorous shaking. IPTG was added to the medium at a final concentration of 0.1 mM IPTG and grown to an OD600 of 0.7. Purification, immunoblotting, CAT ELISA and MalE complementation assays are essentially as described previously. Li, R., Gorelik, R., Nanda, V., Law, P. B., Lear, J. D., DeGrado, W. F. and Bennett, J. S. J. Biol. Chem. 2004, 279, 26666-26673 (2004). For immunoblotting, anti-MBP (NEB) was used for pccKAN (TOXCAT) constructs, whereas anti-myc (Covance) and anti-HA (Covance) were used for pDNToxR-Duet constructs. CAT ELISA results are an average of 3 independent replicates.

[4] = biological target: T3, αIIbβ3 (Homo sapiens, UniProt P08514); experiment: FACS analysis of FITC-fibrinogen binding to platelets; format: cell-based
T3 construct: trapped from a suspension of gel filtered human platelets or CHO cells; endogenous in cells; host or cells: gel-filtered human platelets
Protocol: Freshly isolated platelets were added to 200 μg/ml FITC-conjugated fibrinogen, then incubated with 20 μM ADP or 2 μM of the anti-αIIb polypeptide in the presence or in the absence of 5 mM EDTA for 3 min at room temperature. After incubation, the platelets were fixed with 0.37% formalin in PBS buffer for 10 min, then washed and examined by FACS analysis as previously reported. See Ulmschneider M B et al. Proteins: Struct. Funct. Bioinformat. 59, 252-265 (2005). The polypeptide was added from a DMSO solution such that the final concentration of DMSO was no greater than 0.5%. All controls also had 0.5% DMSO in the buffer.

[5] = biological target: T4, CHO cells expressing αIIbβ3 (Homo sapiens, UniProt P08514); experiment: Force spectroscopy (laser tweezers), CHO cells and fibrinogen-coated beads; format: cell-based, Chinese hamster; conditions: 0.5 μM polypeptide
T4 construct: expressed in transfected cells; host or cells: CHO cells
Text: Litvinov R I et al. Proc. Natl. Acad. Sci. USA. 99, 7426-31 (2002). Recombinant human OPN, prepared as previously described (Bennett J S et al. J. Biol. Chem. 272, 8137-40 (1997)) or purified human fibrinogen was covalently bound to 0.93 μm carboxylate-modified latex beads. Individual cells, trapped from a suspension of gel filtered human platelets or CHO cells, were manually attached to 5 μm diameter silica pedestals coated with polylysine. An OPN- or fibrinogen-coated bead, trapped by the laser light, was then brought into proximity of an immobilized cell, oscillated at 50 Hz, and then brought into repeated intermittent contact with the cell by micromanipulation. Data collection was initiated at the first contact between the bead and the cell. Rupture forces following repeated contacts were collected for periods of several seconds to one minute. Individual forces measured during each contact-detachment cycle were collected into 10 pN-wide bins. The number of events in each bin was then plotted against the average force for that bin after normalizing for the total number of interaction cycles. Thus, the percentage of events in a particular force range (bin) represents the probability of rupture events at that tension. […] Therefore, rupture forces in this range were not considered when the data were analyzed. […]

T2 sequence (P06756 with tags, fused parts or gaps limits assumed): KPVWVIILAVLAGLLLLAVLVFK
T3 sequence (P08514 891-1039 limits assumed): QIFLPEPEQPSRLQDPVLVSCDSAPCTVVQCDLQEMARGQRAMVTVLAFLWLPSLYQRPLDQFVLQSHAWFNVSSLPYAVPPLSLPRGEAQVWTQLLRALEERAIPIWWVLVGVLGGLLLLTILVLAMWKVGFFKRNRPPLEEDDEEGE
T3 sequence (P08514 32-887 partner limits assumed): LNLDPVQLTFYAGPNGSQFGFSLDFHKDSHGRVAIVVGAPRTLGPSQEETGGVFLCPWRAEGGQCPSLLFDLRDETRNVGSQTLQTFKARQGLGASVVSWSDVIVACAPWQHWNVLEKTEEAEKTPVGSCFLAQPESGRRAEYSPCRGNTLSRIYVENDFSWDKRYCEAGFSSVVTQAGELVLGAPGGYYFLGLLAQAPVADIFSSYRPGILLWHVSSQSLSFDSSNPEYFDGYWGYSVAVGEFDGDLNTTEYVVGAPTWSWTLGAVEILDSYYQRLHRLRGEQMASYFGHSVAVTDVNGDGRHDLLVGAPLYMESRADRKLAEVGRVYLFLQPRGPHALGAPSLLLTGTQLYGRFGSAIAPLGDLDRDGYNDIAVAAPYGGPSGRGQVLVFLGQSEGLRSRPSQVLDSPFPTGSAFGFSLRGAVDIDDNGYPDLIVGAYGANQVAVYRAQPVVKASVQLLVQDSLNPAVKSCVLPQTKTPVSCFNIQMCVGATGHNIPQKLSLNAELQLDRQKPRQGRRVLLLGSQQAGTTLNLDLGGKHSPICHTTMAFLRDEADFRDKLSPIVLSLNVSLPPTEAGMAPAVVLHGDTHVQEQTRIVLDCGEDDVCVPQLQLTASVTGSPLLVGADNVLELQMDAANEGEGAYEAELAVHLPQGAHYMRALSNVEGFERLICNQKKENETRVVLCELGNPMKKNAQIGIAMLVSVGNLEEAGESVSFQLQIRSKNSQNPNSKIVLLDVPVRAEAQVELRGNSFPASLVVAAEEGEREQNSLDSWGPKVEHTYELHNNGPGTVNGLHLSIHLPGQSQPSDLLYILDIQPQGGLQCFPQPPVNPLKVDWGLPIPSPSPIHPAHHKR
T3 sequence (P05106 27-788 partner): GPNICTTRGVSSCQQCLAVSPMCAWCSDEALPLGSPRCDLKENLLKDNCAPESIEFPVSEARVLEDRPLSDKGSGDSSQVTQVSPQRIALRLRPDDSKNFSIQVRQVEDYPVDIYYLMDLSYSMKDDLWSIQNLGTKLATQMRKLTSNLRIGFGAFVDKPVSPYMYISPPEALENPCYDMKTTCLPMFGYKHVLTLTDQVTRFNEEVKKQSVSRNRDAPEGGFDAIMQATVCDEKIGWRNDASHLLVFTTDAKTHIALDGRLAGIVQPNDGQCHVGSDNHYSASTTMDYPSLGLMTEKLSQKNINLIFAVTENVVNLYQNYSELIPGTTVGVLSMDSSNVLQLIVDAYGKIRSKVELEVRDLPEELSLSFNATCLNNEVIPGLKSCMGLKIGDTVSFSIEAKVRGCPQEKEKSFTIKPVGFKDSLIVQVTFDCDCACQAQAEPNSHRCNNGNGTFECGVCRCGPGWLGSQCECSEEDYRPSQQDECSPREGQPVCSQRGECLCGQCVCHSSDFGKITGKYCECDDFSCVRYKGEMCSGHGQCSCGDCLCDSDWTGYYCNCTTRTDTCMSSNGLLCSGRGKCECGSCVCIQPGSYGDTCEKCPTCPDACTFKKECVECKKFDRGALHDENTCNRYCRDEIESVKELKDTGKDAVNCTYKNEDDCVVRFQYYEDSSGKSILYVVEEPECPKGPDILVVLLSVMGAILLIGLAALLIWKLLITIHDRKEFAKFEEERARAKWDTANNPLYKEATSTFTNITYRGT
T4 sequence (P08514 891-1039 limits assumed): as the sequence (P08514 891-1039 limits assumed) above
T4 sequence (P08514 32-887 partner limits assumed): as the sequence (P08514 32-887 partner limits assumed) above
T4 sequence (P05106 27-788 partner): as the sequence (P05106 27-788 partner) above
T1 sequence (P08514 999-1020 limits assumed): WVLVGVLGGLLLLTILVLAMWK

Compound | apparent Kdiss for the αIIb-TM/anti-αIIb interaction [1] | homodimer formation in bacterial membranes (CAT signal, words) [2] | interaction with αv TM domain [3] | FITC-labeled fibrinogen bound by platelets ([4]; 2.0 μM polypeptide, compared with 20 μM ADP) | induced fibrinogen binding in the presence of EDTA ([4]; 5 mM EDTA) | rupture force between CHO cells expressing αIIbβ3 and fibrinogen-coated beads [5] | rupture force peak after pre-incubation of CHO cells with abciximab ([5]; abciximab 200 μg/ml)
CC[C@H](C)[C@H](NC(=O)[C@H](Cc1ccccc1)NC(=O)[C@H](Cc1ccccc1)NC(=O)[C@@H]1CCCN1C(=O)[C@H](CC(C)C)NC(=O)[C@H](CC(C)C)NC(=O)[C@H](CCSC)NC(=O)[C@@H](NC(=O)[C@H](Cc1ccc(O)cc1)NC(=O)[C@H](C)NC(=O)[C@H](CCCCN)NC(=O)[C@@H](N)CCCCN)C(C)C)C(=O)NCC(=O)N[C@@H](CC(C)C)C(=O)N[C@@H](CC(C)C)C(=O)N[C@@H](CC(C)C)C(=O)NCC(=O)N[C@@H](CC(C)C)C(=O)N[C@H](C(=O)N[C@@H](Cc1ccccc1)C(=O)NCC(=O)NCC(=O)N[C@@H](C)C(=O)N[C@@H](Cc1ccccc1)C(=O)N[C@@H](Cc1c[nH]c2ccccc12)C(=O)NCC(=O)N1CCC[C@H]1C(=O)N[C@@H](C)C(=O)N[C@@H](CCCNC(=N)N)C(=O)N[C@@H](Cc1c[nH]cn1)C(=O)N[C@@H](CC(C)C)C(=O)N[C@@H](CCCCN)C(=O)N[C@@H](CCCCN)C(N)=O)[C@@H](C)CC [anti-αIIb] (H-KKAYVMLLPFFIGLLLGLIFGGAFWGPARHLKK-NH2; N-terminus assumed) | 3.2±0.5×10^−4 mole fraction units | affinity similar to that of the TM domain of glycophorin A (GpA) | failed to significantly interact | comparable amounts | prevented | peak of rupture force identical to that seen when platelets were incubated with ADP | not present
AYVFILLSFILGTLLGFLVMFWA [anti-αV] | – | affinity similar to that of the TM domain of glycophorin A (GpA) | much greater affinity than the α2, αIIb, β1, or β3 domains | – | – | – | –
